Assay results published in publication PMC5654968 (NPJ Systems Biology and Applications, 2017).
Where two headings read alike, the source gives them in different places.

Assays:
[1] = Common metabolites in rat plasma by GC-MS/MS after polyI:C and/or maoto; assay type: in vivo
Procedure: Distilled water and saline were administered as vehicle to rats in each control group. […] Plasma cytokine levels were measured by ELISA or multiplex immunoassay; common metabolites and lipid mediators were analyzed by GC-MS/MS and LC-MS/MS, respectively.
1 The concentrations of TNF-α and IL-6 in plasma samples were evaluated by
2 ELISA (R&D Systems, Minneapolis, MN, USA). Multiplex immunoassays
3 (Milliplex, Merck KGaA, Darmstadt, Germany) were performed to quantify the
4 concentrations of IL-1β, IL-10 and INF-γ. Assays were performed according to
5 the manufacturer’s protocol.
If any outliers in the data set were determined to
10 be due to artifacts, they were excluded from the analysis. Data are presented as
11 mean ± SEM. Statistical significance of the data was determined by Welch’s
12 t-test with Bonferroni correction. The significance level in each statistical
13 analysis was set at P<0.05.
14 Analysis of metabolites by GC-MS/MS
15 Plasma samples obtained at 1, 2, 6 and 20 h after treatment were used for
16 analysis. To extract low molecular weight metabolites for GC-MS/MS analysis, […]

[2] = Plasma PK of major maoto compounds by LC-MS/MS after oral administration of maoto; assay type: in vivo, rat
Procedure: 1 (7:00-19:00). Rats were maintained and used for the experiments in accordance
2 with the Guidelines for the Care and Use of Laboratory Animals of Tsumura &
3 CO. All experimental procedures were carried out upon approval from the
4 Laboratory Animal Committee of Tsumura & CO.
8 administered to 16-h fasted rats (n=3). […]
14 and 4 g/10mL/kg) were determined by LC-MS/MS. Based on a literature search,
16 amygdalin, prunasin, scopoletin, l-ephedrine, d-pseudoephedrine,
1 Plasma PK data were analyzed by noncompartmental modeling using
2 Phoenix WinNonlin (version 6.3, Certara L.P., St. Louis, MO, USA) to determine
3 various PK constants including Cmax, tmax, t1/2, and AUC0–last. The t1/2 was divided
4 by loge2/ke, where ke is the rate constant of terminal elimination (at least three
5 data points on the descending linear limb). […]

[3] = PM/P (polyI:C+maoto vs polyI:C), 1h
[4] = PM/P (polyI:C+maoto vs polyI:C), 2h
[5] = PM/P (polyI:C+maoto vs polyI:C), 6h
[6] = PM/P (polyI:C+maoto vs polyI:C), 20h
[7] = Sprague-Dawley, rat, plasma, po, 1 g/kg
[8] = Sprague-Dawley, rat, plasma, po, 1 g/kg, read-out: Cmax
[9] = Sprague-Dawley, rat, plasma, po, 1 g/kg, read-out: Tmax
[10] = Sprague-Dawley, rat, plasma, po, 2 g/kg
[11] = Sprague-Dawley, rat, plasma, po, 2 g/kg, read-out: Cmax
[12] = Sprague-Dawley, rat, plasma, po, 2 g/kg, read-out: Tmax
[13] = Sprague-Dawley, rat, plasma, po, 4 g/kg
[14] = Sprague-Dawley, rat, plasma, po, 4 g/kg, read-out: Cmax
[15] = Sprague-Dawley, rat, plasma, po, 4 g/kg, read-out: Tmax

NCC(=O)O [Glycine]
log2FC of plasma level ([1]; M/C (maoto vs control), 1h): -0.06 | log2FC of plasma level ([1]; M/C (maoto vs control), 2h): -0.10 | log2FC of plasma level ([1]; M/C (maoto vs control), 6h): -0.14 | log2FC of plasma level ([1]; M/C (maoto vs control), 20h): -0.06 | log2FC of plasma level ([1]; P/C (polyI:C vs control), 1h): -0.03 | log2FC of plasma level ([1]; P/C (polyI:C vs control), 2h): -0.01 | log2FC of plasma level ([1]; P/C (polyI:C vs control), 6h): -0.02 | log2FC of plasma level ([1]; P/C (polyI:C vs control), 20h): -0.30 | log2FC of plasma level [1, 3]: -0.12 | log2FC of plasma level [1, 4]: -0.42 | log2FC of plasma level [1, 5]: -0.02 | log2FC of plasma level [1, 6]: 0.0873

O=C(O)Cc1cc(O)ccc1O [Homogentisic acid]
log2FC of plasma level ([1]; M/C (maoto vs control), 1h): 0.60 | log2FC of plasma level ([1]; M/C (maoto vs control), 2h): -0.05 | log2FC of plasma level ([1]; M/C (maoto vs control), 6h): 0.23 | log2FC of plasma level ([1]; M/C (maoto vs control), 20h): 0.79 | log2FC of plasma level ([1]; P/C (polyI:C vs control), 1h): -0.05 | log2FC of plasma level ([1]; P/C (polyI:C vs control), 2h): 0.24 | log2FC of plasma level ([1]; P/C (polyI:C vs control), 6h): 0.10 | log2FC of plasma level ([1]; P/C (polyI:C vs control), 20h): 0.75 | log2FC of plasma level [1, 3]: 0.68 | log2FC of plasma level [1, 4]: -0.76 | log2FC of plasma level [1, 5]: -0.18 | log2FC of plasma level [1, 6]: 0.0612

O=C(/C=C/c1ccc(O[C@@H]2O[C@H](CO)[C@@H](O)[C@H](O)[C@H]2O)cc1)c1ccc(O)cc1O [Isoliquiritin]
AUC(0-t) [2, 7]: 2.09 ng·h/mL | half-life [2, 7]: 2.3 h | Cmax [2, 8]: 0.0016 µg/mL | Tmax [2, 9]: 0.25 h | AUC(0-t) [2, 10]: 6.03 ng·h/mL | Cmax [2, 11]: 0.0036 µg/mL | Tmax [2, 12]: 1 h | AUC(0-t) [2, 13]: 12.6 ng·h/mL | half-life [2, 13]: 3.14 h | Cmax [2, 14]: 0.00871 µg/mL | Tmax [2, 15]: 0.25 h

O=C1C[C@@H](c2ccc(O)cc2)Oc2cc(O)ccc21 [Liquiritigenin]
AUClast ([2]; rat plasma, oral maoto 1 g/kg): 17.4 ng·h/mL | Cmax ([2]; rat plasma, oral maoto 1 g/kg): 0.018 µg/mL | Tmax ([2]; rat plasma, oral maoto 1 g/kg): 0.250 h | AUClast ([2]; rat plasma, oral maoto 2 g/kg): 35.0 ng·h/mL | Cmax ([2]; rat plasma, oral maoto 2 g/kg): 0.0151 µg/mL | Tmax ([2]; rat plasma, oral maoto 2 g/kg): 1.00 h | AUClast ([2]; rat plasma, oral maoto 4 g/kg): 84.4 ng·h/mL | Cmax ([2]; rat plasma, oral maoto 4 g/kg): 0.0161 µg/mL | Tmax ([2]; rat plasma, oral maoto 4 g/kg): 0.250 h

O=C1C[C@@H](c2ccc(O[C@@H]3O[C@H](CO)[C@@H](O)[C@H](O)[C@H]3O)cc2)Oc2cc(O)ccc21 [Liquiritin]
AUC(0-t) [2, 7]: 8.9 ng·h/mL | half-life [2, 7]: 1.95 h | Cmax [2, 8]: 0.00304 µg/mL | Tmax [2, 9]: 0.25 h | AUC(0-t) [2, 10]: 22.4 ng·h/mL | half-life [2, 10]: 2.23 h | Cmax [2, 11]: 0.00723 µg/mL | Tmax [2, 12]: 1 h | AUC(0-t) [2, 13]: 61.4 ng·h/mL | half-life [2, 13]: 4.34 h | Cmax [2, 14]: 0.0717 µg/mL | Tmax [2, 15]: 0.25 h

Oc1cc(O)c2c(c1)O[C@H](c1ccc(O)c(O)c1)[C@H](O)[C@H]2c1c(O)cc(O)c2c1O[C@H](c1ccc(O)c(O)c1)[C@H](O)C2 [Procyanidin B2]
AUC(0-t) [2, 10]: 0.172 ng·h/mL | Cmax [2, 11]: 0.000687 µg/mL | Tmax [2, 12]: 1 h | AUC(0-t) [2, 13]: 2.06 ng·h/mL | Cmax [2, 14]: 0.00464 µg/mL | Tmax [2, 15]: 0.25 h | AUClast ([2]; rat plasma, oral maoto 1 g/kg): BQL | Cmax ([2]; rat plasma, oral maoto 1 g/kg): BQL

Oc1cc(O)c2c(c1)O[C@H](c1ccc(O)c(O)c1)[C@H](O)[C@H]2c1c(O)cc(O)c2c1O[C@H](c1ccc(O)c(O)c1)[C@H](O)[C@H]2c1c(O)cc(O)c2c1O[C@H](c1ccc(O)c(O)c1)[C@H](O)C2 [Procyanidin C1]
AUC(0-t) [2, 13]: 1.69 ng·h/mL | Cmax [2, 14]: 0.0039 µg/mL | Tmax [2, 15]: 0.25 h | detection in rat plasma by targeted LC-MS/MS ([2]; oral maoto 2 g/kg): not detected | AUClast ([2]; rat plasma, oral maoto 1 g/kg): BQL | Cmax ([2]; rat plasma, oral maoto 1 g/kg): BQL | AUClast ([2]; rat plasma, oral maoto 2 g/kg): BQL | Cmax ([2]; rat plasma, oral maoto 2 g/kg): BQL

N#C[C@H](O[C@@H]1O[C@H](CO)[C@@H](O)[C@H](O)[C@H]1O)c1ccccc1 [Prunasin]
AUC(0-t) [2, 7]: 5520 ng·h/mL | half-life [2, 7]: 0.891 h | Cmax [2, 8]: 2.02 µg/mL | Tmax [2, 9]: 0.5 h | AUC(0-t) [2, 10]: 11900 ng·h/mL | half-life [2, 10]: 2.45 h | Cmax [2, 11]: 2.24 µg/mL | Tmax [2, 12]: 0.5 h | AUC(0-t) [2, 13]: 32000 ng·h/mL | half-life [2, 13]: 3.21 h | Cmax [2, 14]: 3.25 µg/mL | Tmax [2, 15]: 2 h

O=C[C@H](O)[C@H](O)[C@H](O)CO [Ribose]
log2FC of plasma level ([1]; M/C (maoto vs control), 1h): 0.41 | log2FC of plasma level ([1]; M/C (maoto vs control), 2h): 0.05 | log2FC of plasma level ([1]; M/C (maoto vs control), 6h): -0.22 | log2FC of plasma level ([1]; M/C (maoto vs control), 20h): 0.16 | log2FC of plasma level ([1]; P/C (polyI:C vs control), 1h): 1.05 | log2FC of plasma level ([1]; P/C (polyI:C vs control), 2h): 0.63 | log2FC of plasma level ([1]; P/C (polyI:C vs control), 6h): -0.22 | log2FC of plasma level ([1]; P/C (polyI:C vs control), 20h): -0.34 | log2FC of plasma level [1, 3]: -1.38 | log2FC of plasma level [1, 4]: -0.72 | log2FC of plasma level [1, 5]: -0.21 | log2FC of plasma level [1, 6]: 0.2160

O=C(CO)C(O)C(O)CO (centres unmarked) [Ribulose]
log2FC of plasma level ([1]; M/C (maoto vs control), 1h): 0.30 | log2FC of plasma level ([1]; M/C (maoto vs control), 2h): 0.01 | log2FC of plasma level ([1]; M/C (maoto vs control), 6h): 0.06 | log2FC of plasma level ([1]; M/C (maoto vs control), 20h): 0.08 | log2FC of plasma level ([1]; P/C (polyI:C vs control), 1h): 0.24 | log2FC of plasma level ([1]; P/C (polyI:C vs control), 2h): 0.14 | log2FC of plasma level ([1]; P/C (polyI:C vs control), 6h): 0.10 | log2FC of plasma level ([1]; P/C (polyI:C vs control), 20h): -0.04 | log2FC of plasma level [1, 3]: -0.26 | log2FC of plasma level [1, 4]: -0.26 | log2FC of plasma level [1, 5]: 0.02 | log2FC of plasma level [1, 6]: 0.0374

COc1cc2ccc(=O)oc2cc1O [Scopoletin]
AUC(0-t) [2, 7]: 0.07 ng·h/mL | Cmax [2, 8]: 0.000216 µg/mL | Tmax [2, 9]: 0.25 h | AUC(0-t) [2, 10]: 0.428 ng·h/mL | half-life [2, 10]: 2.39 h | Cmax [2, 11]: 0.000425 µg/mL | Tmax [2, 12]: 0.25 h | AUC(0-t) [2, 13]: 0.591 ng·h/mL | half-life [2, 13]: 5.44 h | Cmax [2, 14]: 0.000237 µg/mL | Tmax [2, 15]: 0.25 h

NC(N)=O [Urea]
log2FC of plasma level ([1]; M/C (maoto vs control), 1h): 0.05 | log2FC of plasma level ([1]; M/C (maoto vs control), 2h): -0.01 | log2FC of plasma level ([1]; M/C (maoto vs control), 6h): -0.09 | log2FC of plasma level ([1]; M/C (maoto vs control), 20h): -0.07 | log2FC of plasma level ([1]; P/C (polyI:C vs control), 1h): -0.01 | log2FC of plasma level ([1]; P/C (polyI:C vs control), 2h): 0.02 | log2FC of plasma level ([1]; P/C (polyI:C vs control), 6h): -0.05 | log2FC of plasma level ([1]; P/C (polyI:C vs control), 20h): 0.03 | log2FC of plasma level [1, 3]: -0.02 | log2FC of plasma level [1, 4]: -0.03 | log2FC of plasma level [1, 5]: -0.13 | log2FC of plasma level [1, 6]: 0.0096

CN[C@@H](C)[C@@H](O)c1ccccc1 [d-Pseudoephedrine, d-pseudoephedrine]
AUC(0-t) [2, 7]: 183 ng·h/mL | half-life [2, 7]: 5.82 h | Cmax [2, 8]: 0.136 µg/mL | Tmax [2, 9]: 0.25 h | AUC(0-t) [2, 10]: 559 ng·h/mL | half-life [2, 10]: 6.58 h | Cmax [2, 11]: 0.163 µg/mL | Tmax [2, 12]: 0.25 h | AUC(0-t) [2, 13]: 1180 ng·h/mL | half-life [2, 13]: 3.86 h | Cmax [2, 14]: 0.253 µg/mL | Tmax [2, 15]: 0.25 h

CN[C@@H](C)[C@H](O)c1ccccc1 [l-Ephedrine, l-ephedrine]
AUC(0-t) [2, 7]: 730 ng·h/mL | half-life [2, 7]: 1.35 h | Cmax [2, 8]: 0.311 µg/mL | Tmax [2, 9]: 0.25 h | AUC(0-t) [2, 10]: 1560 ng·h/mL | half-life [2, 10]: 1.44 h | Cmax [2, 11]: 0.377 µg/mL | Tmax [2, 12]: 1 h | AUC(0-t) [2, 13]: 2850 ng·h/mL | half-life [2, 13]: 4.19 h | Cmax [2, 14]: 0.545 µg/mL | Tmax [2, 15]: 0.25 h
